# “And” between values parts separate entries of the source, which are not always exact repeats. Identical values can stand only once.
# Assays:
# [1] = target: T1, 14-3-3β/CFTRpS753pS768 complex (Homo sapiens, UniProt P13569+P31946); experiment: Dose-response fluorescence polarization (FP) assay, compound titration; type: binding; conditions: for EC50: 14-3-3β 10 μM, labeled CFTRpS753pS768 100 nM, read-out: EC50; for FP signal: With 14-3-3
# T1 construct: His6 (cleaved yes); made in house; peptide synthetic
# T1 sequence (P31946 whole entry): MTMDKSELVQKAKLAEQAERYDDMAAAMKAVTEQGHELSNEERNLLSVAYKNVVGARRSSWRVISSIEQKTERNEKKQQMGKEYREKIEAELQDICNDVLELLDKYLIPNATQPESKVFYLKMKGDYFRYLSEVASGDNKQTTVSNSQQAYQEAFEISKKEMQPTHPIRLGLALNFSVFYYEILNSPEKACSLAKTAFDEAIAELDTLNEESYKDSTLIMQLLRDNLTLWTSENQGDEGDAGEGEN
# T1 sequence (P13569 747-774 limits assumed): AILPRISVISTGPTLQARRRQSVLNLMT
# Procedure, shortened: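 Compounds were titrated in two-fold dilutions against 10 μM 14-3-3β and FITC-CFTR pS753pS768 peptide (100 nM or 10 nM). Buffer: 10 mM HEPES pH 7.4, 150 mM NaCl, 0.1% Tween20, 1 mg/mL BSA. Polarization was read at ex 485/em 535 nm, and EC50 was derived from a four-parameter variable-slope fit.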
# [2] = target: T1, 14-3-3β/CFTRpS753pS768 complex; experiment: FP assay, 14-3-3β titration at constant compound concentration (apparent KD); type: binding; conditions: for FP signal, 14-3-3β titration: replicates
smiles,measurement,setting,value
N=C(N)NCCCC1NC(=O)C(CCC(N)=O)NC(=O)C(CCCNC(=N)N)NC(=O)C2CCCN2Cc2ccccc2Sc2ccccc2CNC1=O (centres unmarked) [CY007502],EC50,[1],275 µM
same,FP signal,[1]; compound 453 pM,1
same,FP signal,[1]; compound 906 pM,2
same,FP signal,[1]; compound 1.81198e-9 M,2
same,FP signal,[1]; compound 3.62396e-9 M,3
same,FP signal,[1]; compound 7.24792e-9 M,3
same,FP signal,[1]; compound 1.44958e-8 M,1
same,FP signal,[1]; compound 2.89917e-8 M,3
same,FP signal,[1]; compound 5.79834e-8 M,4
same,FP signal,[1]; compound 1.15967e-7 M,3
same,FP signal,[1]; compound 2.31934e-7 M,4
same,FP signal,[1]; compound 4.63867e-7 M,6
same,FP signal,[1]; compound 9.27734e-7 M,3
same,FP signal,[1]; compound 1.85547e-6 M,3
same,FP signal,[1]; compound 3.71094e-6 M,4
same,FP signal,[1]; compound 7.42187e-6 M,6
same,FP signal,[1]; compound 1.48437e-5 M,6
same,FP signal,[1]; compound 2.96875e-5 M,6
same,FP signal,[1]; compound 5.9375e-5 M,26
same,FP signal,[1]; compound 0.00011875 M,67
same,FP signal,[1]; compound 0.0002375 M,127
same,FP signal,[1]; compound 0.000475 M,188
same,FP signal,[1]; compound 0.00095 M,241
same,"FP signal, 14-3-3β titration","[2]; 14-3-3β 7.62939e-9 M, FC-A + CY compound",7 and 2 and -1
same,"FP signal, 14-3-3β titration","[2]; 14-3-3β 7.62939e-9 M, compound 100 μM",6 and 5
same,"FP signal, 14-3-3β titration","[2]; 14-3-3β 1.52588e-8 M, FC-A + CY compound",5 (2×) and 6
same,"FP signal, 14-3-3β titration","[2]; 14-3-3β 1.52588e-8 M, compound 100 μM",0 and 3 and 4
same,"FP signal, 14-3-3β titration","[2]; 14-3-3β 3.05176e-8 M, FC-A + CY compound",12 and 13 and 8
same,"FP signal, 14-3-3β titration","[2]; 14-3-3β 3.05176e-8 M, compound 100 μM",4 and 5 and 3
same,"FP signal, 14-3-3β titration","[2]; 14-3-3β 6.10352e-8 M, FC-A + CY compound",19 and 17 (2×)
same,"FP signal, 14-3-3β titration","[2]; 14-3-3β 6.10352e-8 M, compound 100 μM",3 (2×) and 5
same,"FP signal, 14-3-3β titration","[2]; 14-3-3β 1.2207e-7 M, FC-A + CY compound",30 and 33 and 27
same,"FP signal, 14-3-3β titration","[2]; 14-3-3β 1.2207e-7 M, compound 100 μM",6 and 5 and 8
same,"FP signal, 14-3-3β titration","[2]; 14-3-3β 2.44141e-7 M, FC-A + CY compound",51 and 57 and 45
same,"FP signal, 14-3-3β titration","[2]; 14-3-3β 2.44141e-7 M, compound 100 μM",8 (2×) and 7
same,"FP signal, 14-3-3β titration","[2]; 14-3-3β 4.88281e-7 M, FC-A + CY compound",76 and 79 and 69
same,"FP signal, 14-3-3β titration","[2]; 14-3-3β 4.88281e-7 M, compound 100 μM",10 and 8 and 12
same,"FP signal, 14-3-3β titration","[2]; 14-3-3β 9.76563e-7 M, FC-A + CY compound",99 and 95 and 89
same,"FP signal, 14-3-3β titration","[2]; 14-3-3β 9.76563e-7 M, compound 100 μM",16 and 15 and 18
same,"FP signal, 14-3-3β titration","[2]; 14-3-3β 1.95313e-6 M, FC-A + CY compound",108 (2×) and 110
same,"FP signal, 14-3-3β titration","[2]; 14-3-3β 1.95313e-6 M, compound 100 μM",24 (2×) and 28
same,"FP signal, 14-3-3β titration","[2]; 14-3-3β 3.90625e-6 M, FC-A + CY compound",119 (2×) and 117
same,"FP signal, 14-3-3β titration","[2]; 14-3-3β 3.90625e-6 M, compound 100 μM",31 and 32 and 33
same,"FP signal, 14-3-3β titration","[2]; 14-3-3β 7.8125e-6 M, FC-A + CY compound",126 and 127 and 121
same,"FP signal, 14-3-3β titration","[2]; 14-3-3β 7.8125e-6 M, compound 100 μM",35 and 40 and 41
same,"FP signal, 14-3-3β titration","[2]; 14-3-3β 1.5625e-5 M, FC-A + CY compound",132 and 128 and 129
same,"FP signal, 14-3-3β titration","[2]; 14-3-3β 1.5625e-5 M, compound 100 μM",49 and 50 and 52
same,"FP signal, 14-3-3β titration","[2]; 14-3-3β 3.125e-5 M, FC-A + CY compound",138 and 136 and 135
same,"FP signal, 14-3-3β titration","[2]; 14-3-3β 3.125e-5 M, compound 100 μM",64 and 62 and 65
same,"FP signal, 14-3-3β titration","[2]; 14-3-3β 6.25e-5 M, FC-A + CY compound",143 and 145
same,"FP signal, 14-3-3β titration","[2]; 14-3-3β 6.25e-5 M, compound 100 μM",87 and 83 and 85
same,"FP signal, 14-3-3β titration","[2]; 14-3-3β 0.000125 M, FC-A + CY compound",156 and 151 and 152
same,"FP signal, 14-3-3β titration","[2]; 14-3-3β 0.000125 M, compound 100 μM",104 and 106 and 103
same,"FP signal, 14-3-3β titration","[2]; 14-3-3β 0.00025 M, FC-A + CY compound",165 and 159 and 157
same,"FP signal, 14-3-3β titration","[2]; 14-3-3β 0.00025 M, compound 100 μM",119 (2×) and 122
same,"FP signal, 14-3-3β titration","[2]; 14-3-3β 0.0005 M, FC-A + CY compound",177 and 175 and 169
same,"FP signal, 14-3-3β titration","[2]; 14-3-3β 0.0005 M, compound 100 μM",151 and 144 and 146
CC1NC(=O)C(CCCNC(=N)N)NC(=O)C2CCCN2Cc2cccc(c2)-c2ccccc2CNC(=O)C(CCCNC(=N)N)NC1=O (centres unmarked) [CY007476],EC50,[1],147 µM
same,FP signal,[1]; compound 476.8 pM,1
same,FP signal,[1]; compound 953.7 pM,3
same,FP signal,[1]; compound 1.90735e-9 M,2
same,FP signal,[1]; compound 3.8147e-9 M,5
same,FP signal,[1]; compound 7.6294e-9 M,5
same,FP signal,[1]; compound 1.52588e-8 M,4
same,FP signal,[1]; compound 3.05176e-8 M,6
same,FP signal,[1]; compound 6.10352e-8 M,6
same,FP signal,[1]; compound 1.2207e-7 M,3
same,FP signal,[1]; compound 2.44141e-7 M,4
same,FP signal,[1]; compound 4.88281e-7 M,4
same,FP signal,[1]; compound 9.76563e-7 M,5
same,FP signal,[1]; compound 1.95313e-6 M,5
same,FP signal,[1]; compound 3.90625e-6 M,6
same,FP signal,[1]; compound 7.8125e-6 M,10
same,FP signal,[1]; compound 1.5625e-5 M,13
same,FP signal,[1]; compound 3.125e-5 M,24
same,FP signal,[1]; compound 6.25e-5 M,59
same,FP signal,[1]; compound 0.000125 M,124
same,FP signal,[1]; compound 0.00025 M,186
same,FP signal,[1]; compound 0.0005 M,230
same,FP signal,[1]; compound 0.001 M,257
same,"Fluorescence polarization signal, 14-3-3β titration","[2]; CY compound (100 μM), 14-3-3β concentration 7.62939e-9 M",3.667 and 2.667 and 4.667
same,"Fluorescence polarization signal, 14-3-3β titration","[2]; CY compound (100 μM), 14-3-3β concentration 3.05176e-8 M",5.667 and 6.667
same,"Fluorescence polarization signal, 14-3-3β titration","[2]; CY compound (100 μM), 14-3-3β concentration 2.44141e-7 M",8.667 and 10.6667 and 11.6667
same,"Fluorescence polarization signal, 14-3-3β titration","[2]; CY compound (100 μM), 14-3-3β concentration 4.88281e-7 M",12.6667 and 17.6667 and 16.6667
same,"Fluorescence polarization signal, 14-3-3β titration","[2]; CY compound (100 μM), 14-3-3β concentration 7.8125e-6 M",36.6667 and 60.6667 and 59.6667
same,"Fluorescence polarization signal, 14-3-3β titration","[2]; CY compound (100 μM), 14-3-3β concentration 1.5625e-5 M",49.6667 and 67.6667 and 72.6667
same,"Fluorescence polarization signal, 14-3-3β titration","[2]; CY compound (100 μM), 14-3-3β concentration 3.125e-5 M",68.6667 and 82.6667 and 79.6667
same,"Fluorescence polarization signal, 14-3-3β titration","[2]; CY compound (100 μM), 14-3-3β concentration 6.25e-5 M",87.6667 and 91.6667 and 95.6667
same,"Fluorescence polarization signal, 14-3-3β titration","[2]; CY compound (100 μM), 14-3-3β concentration 0.000125 M",105.667 and 110.667 and 108.667
same,"Fluorescence polarization signal, 14-3-3β titration","[2]; CY compound (100 μM), 14-3-3β concentration 0.00025 M",127.667 and 126.667
same,"Fluorescence polarization signal, 14-3-3β titration","[2]; CY compound (100 μM), 14-3-3β concentration 0.0005 M",145.667 and 146.667 and 147.667
same,"Fluorescence polarization signal, 14-3-3β titration","[2]; FC-A + CY compound, 14-3-3β concentration 119.2 pM",1.667
same,"Fluorescence polarization signal, 14-3-3β titration","[2]; FC-A + CY compound, 14-3-3β concentration 3.05176e-8 M",5.667 and 8.667
same,"Fluorescence polarization signal, 14-3-3β titration","[2]; FC-A + CY compound, 14-3-3β concentration 6.10352e-8 M",6.667 and 12.6667 and 9.667
same,"Fluorescence polarization signal, 14-3-3β titration","[2]; FC-A + CY compound, 14-3-3β concentration 1.2207e-7 M",20.6667 and 16.6667 and 13.6667
same,"Fluorescence polarization signal, 14-3-3β titration","[2]; FC-A + CY compound, 14-3-3β concentration 2.44141e-7 M",27.6667 and 26.6667
same,"Fluorescence polarization signal, 14-3-3β titration","[2]; FC-A + CY compound, 14-3-3β concentration 4.88281e-7 M",49.6667 and 43.6667
same,"Fluorescence polarization signal, 14-3-3β titration","[2]; FC-A + CY compound, 14-3-3β concentration 9.76563e-7 M",71.6667 and 68.6667 and 64.6667
same,"Fluorescence polarization signal, 14-3-3β titration","[2]; FC-A + CY compound, 14-3-3β concentration 1.95313e-6 M",94.6667 and 91.6667 and 86.6667
same,"Fluorescence polarization signal, 14-3-3β titration","[2]; FC-A + CY compound, 14-3-3β concentration 3.90625e-6 M",110.667 and 106.667 and 104.667
same,"Fluorescence polarization signal, 14-3-3β titration","[2]; FC-A + CY compound, 14-3-3β concentration 7.8125e-6 M",123.667 and 119.667 and 117.667
same,"Fluorescence polarization signal, 14-3-3β titration","[2]; FC-A + CY compound, 14-3-3β concentration 1.5625e-5 M",128.667 and 130.667
same,"Fluorescence polarization signal, 14-3-3β titration","[2]; FC-A + CY compound, 14-3-3β concentration 3.125e-5 M",139.667 and 137.667 and 141.667
same,"Fluorescence polarization signal, 14-3-3β titration","[2]; FC-A + CY compound, 14-3-3β concentration 6.25e-5 M",145.667 and 146.667 and 143.667
same,"Fluorescence polarization signal, 14-3-3β titration","[2]; FC-A + CY compound, 14-3-3β concentration 0.000125 M",155.667 and 156.667
same,"Fluorescence polarization signal, 14-3-3β titration","[2]; FC-A + CY compound, 14-3-3β concentration 0.00025 M",165.667 and 164.667 and 162.667
same,"Fluorescence polarization signal, 14-3-3β titration","[2]; FC-A + CY compound, 14-3-3β concentration 0.0005 M",178.667 and 174.667 and 172.667

# — publication PMC9226124, “Macrocycle-stabilization of its interaction with 14-3-3 increases plasma membrane localization and activity of CFTR” (Nature Communications, 2022)
